Legend:
hCoV-229E = experiment: microbe, parasite or virus in culture; format: cell-based; conditions: Human coronavirus 229E
SARS-CoV-2 = experiment: microbe, parasite or virus in culture; format: cell-based; conditions: for IC50: Severe acute respiratory syndrome coronavirus 2, SARS-CoV-2 in A549_ACE2_TMPRSS2 cells, fluorescence, mean of three biological replicates; for selectivity index (CC50/IC50): CC50 in A549_ACE2_TMPRSS2 cells over IC50
in vitro = conditions: human

| SMILES | IC50 (hCoV-229E) [nM] | IC50 (SARS-CoV-2) [nM] | viral inhibition (SARS-CoV-2; SARS-CoV-2, antiviral compound control at 1 µM) | CC50 (in vitro) [nM] | selectivity index (CC50/IC50) (SARS-CoV-2) |
| --- | --- | --- | --- | --- | --- |
| CC[C@@H](C)NC1=N[C@@]2(C)C(=CO1)[C@@]1(C)C(=O)C[C@H]3[C@@H](CC[C@@H]4[C@]3(C)CC[C@H]3[C@@]4(C)CC[C@H]4[C@@](C)(CO)C[C@H](O[C@H]5C[C@@H](OC)[C@H](O)[C@@H](C)O5)[C@@H](O)[C@@]43C)[C@@]13O[C@H]3[C@@H]2O [Persicamidine A, persicamidine A] | 3.8 | 130 |  |  |  |
| CCC(CC)COC(=O)[C@H](C)N[P@](=O)(OC[C@H]1O[C@@](C#N)(c2ccc3c(N)ncnn23)[C@H](O)[C@@H]1O)Oc1ccccc1 [Remdesivir, reference compound] | 3.5 | 30 | full viral inhibition | > 1000 |  |
| CO[C@@H]1C[C@H](O[C@H]2C[C@](C)(CO)[C@@H]3CC[C@@]4(C)[C@@H]5CC[C@@H]6[C@H](CC(=O)[C@]7(C)C8=COC(NC(C)C)=N[C@]8(C)[C@@H](O)[C@@H]8O[C@@]687)[C@@]5(C)CC[C@@H]4[C@@]3(C)[C@@H]2O)O[C@H](C)[C@H]1O [Persicamidine B, persicamidine B] | 3.6 | 230 |  |  |  |
| CO[C@@H]1C[C@H](O[C@H]2C[C@](C)(CO)[C@@H]3CC[C@@]4(C)[C@@H]5CC[C@@H]6[C@H](CC(=O)[C@]7(C)C8=COC(N[C@H](C)C(C)(C)C)=N[C@]8(C)[C@@H](O)[C@@H]8O[C@@]687)[C@@]5(C)CC[C@@H]4[C@@]3(C)[C@@H]2O)O[C@H](C)[C@H]1O [Persicamidine D, persicamidine D] | 5.2 | 84 |  |  | > 80 |
| CO[C@@H]1C[C@H](O[C@H]2C[C@](C)(CO)[C@@H]3CC[C@@]4(C)[C@@H]5CC[C@@H]6[C@H](CC(=O)[C@]7(C)C8=COC(N[C@H](C)C(C)C)=N[C@]8(C)[C@@H](O)[C@@H]8O[C@@]687)[C@@]5(C)CC[C@@H]4[C@@]3(C)[C@@H]2O)O[C@H](C)[C@H]1O [Persicamidine C, persicamidine C] | 6.6 | 74 |  |  | > 50 |
| CCNC1=N[C@@]2(C)C(=CO1)[C@@]1(C)C(=O)C[C@H]3[C@@H](CC[C@@H]4[C@]3(C)CC[C@H]3[C@@]4(C)CC[C@H]4[C@@](C)(CO)C[C@H](O[C@H]5C[C@@H](OC)[C@H](O)[C@@H](C)O5)[C@@H](O)[C@@]43C)[C@@]13O[C@H]3[C@@H]2O [Persicamidine E, persicamidine E] | 5.3 | 250 |  |  |  |

Reference: PMC10107436, “Persicamidines—Unprecedented Sesquarterpenoids with Potent Antiviral Bioactivity against Coronaviruses” (Angewandte Chemie (International Ed. in English), 2023)
